Results from ChEMBL document CHEMBL1201862, “PubChem BioAssay data set” (2004).
Active and inactive are the calls of the source.

How the values were obtained:
Type in all cases: functional
[1] = molecular target: Glycogen synthase kinase-3 beta (Homo sapiens, UniProt P49841); assay: inhibition of human GSK3B activity – biochemical, microfluidics, dry powder samples, set 2, dose response (AID 623989)
[2] = molecular target: Glycogen synthase kinase-3 alpha (Homo sapiens, UniProt P49840); assay: GSK3A enzyme blockers, homolog specificity check – biochemical, microfluidics, dry powder samples, set 2, selectivity assay for GSK3beta inhibitor project, dose response (AID 623978)
Chain of Glycogen synthase kinase-3 alpha (P49840 whole entry): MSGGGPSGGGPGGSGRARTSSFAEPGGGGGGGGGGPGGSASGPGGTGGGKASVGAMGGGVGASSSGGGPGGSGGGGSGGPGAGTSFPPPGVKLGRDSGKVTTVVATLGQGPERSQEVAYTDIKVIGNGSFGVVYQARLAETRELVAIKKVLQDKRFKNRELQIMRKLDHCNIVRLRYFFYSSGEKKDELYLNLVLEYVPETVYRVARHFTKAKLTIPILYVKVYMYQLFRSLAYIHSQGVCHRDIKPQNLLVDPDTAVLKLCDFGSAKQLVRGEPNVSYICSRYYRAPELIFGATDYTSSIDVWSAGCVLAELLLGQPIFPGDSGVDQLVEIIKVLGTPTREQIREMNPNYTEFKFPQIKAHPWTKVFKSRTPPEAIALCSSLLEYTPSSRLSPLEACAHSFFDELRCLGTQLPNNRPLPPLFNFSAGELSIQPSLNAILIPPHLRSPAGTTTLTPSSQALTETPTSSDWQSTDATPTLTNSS

[3] = molecular target: cGMP-dependent protein kinase 1 (Homo sapiens, UniProt Q13976);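 note: value from a kinome panel screen with PRKG1 as the panel member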
[4] = molecular target: Protein kinase C delta type (Homo sapiens, UniProt Q05655)
[5] = molecular target: Ribosomal protein S6 kinase beta-1 (Homo sapiens, UniProt P23443);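 note: measured as one member of a kinome-wide profiling panel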
[6] = molecular target: Calcium/calmodulin-dependent protein kinase type II subunit gamma (Homo sapiens, UniProt Q13555)
[7] = molecular target: Serine/threonine-protein kinase Chk2 (Homo sapiens, UniProt O96017);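 note: CHEK2 entry within a kinome-wide screening panel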
Chain of Serine/threonine-protein kinase Chk2 (O96017 whole entry): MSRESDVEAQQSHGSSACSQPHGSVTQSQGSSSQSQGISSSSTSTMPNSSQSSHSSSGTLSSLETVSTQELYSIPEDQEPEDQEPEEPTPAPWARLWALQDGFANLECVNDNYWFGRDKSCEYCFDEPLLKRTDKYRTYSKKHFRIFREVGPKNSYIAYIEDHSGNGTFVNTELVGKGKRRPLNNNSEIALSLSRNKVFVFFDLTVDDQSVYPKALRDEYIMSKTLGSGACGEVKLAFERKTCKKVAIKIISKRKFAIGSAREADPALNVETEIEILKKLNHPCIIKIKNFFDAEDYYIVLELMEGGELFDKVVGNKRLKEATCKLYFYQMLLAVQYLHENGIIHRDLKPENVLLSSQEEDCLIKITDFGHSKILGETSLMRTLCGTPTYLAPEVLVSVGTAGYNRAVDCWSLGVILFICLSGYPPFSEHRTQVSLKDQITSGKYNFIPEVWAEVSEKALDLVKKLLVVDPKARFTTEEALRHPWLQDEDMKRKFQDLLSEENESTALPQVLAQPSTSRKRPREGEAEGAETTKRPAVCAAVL

[8] = molecular target: Mitogen-activated protein kinase 8 (Homo sapiens, UniProt P45983);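 note: value comes from one member of a kinome-wide kinase profiling panel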
Chain of Mitogen-activated protein kinase 8 (P45983 whole entry): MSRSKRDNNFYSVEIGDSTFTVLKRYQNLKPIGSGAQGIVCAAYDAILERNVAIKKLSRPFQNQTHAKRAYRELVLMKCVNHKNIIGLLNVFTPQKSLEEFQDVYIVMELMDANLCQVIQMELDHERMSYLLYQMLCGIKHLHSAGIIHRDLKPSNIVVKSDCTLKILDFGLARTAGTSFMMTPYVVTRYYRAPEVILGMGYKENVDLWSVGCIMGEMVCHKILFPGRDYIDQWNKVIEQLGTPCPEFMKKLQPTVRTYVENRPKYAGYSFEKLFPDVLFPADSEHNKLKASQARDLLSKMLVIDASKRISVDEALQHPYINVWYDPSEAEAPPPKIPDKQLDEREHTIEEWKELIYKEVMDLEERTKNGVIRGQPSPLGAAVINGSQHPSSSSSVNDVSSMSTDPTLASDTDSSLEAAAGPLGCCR

[9] = molecular target: Serine/threonine-protein kinase pim-1 (Homo sapiens, UniProt P11309)
[10] = molecular target: Casein kinase I isoform alpha (Homo sapiens, UniProt P48729)
[11] = molecular target: Proto-oncogene tyrosine-protein kinase ROS (Homo sapiens, UniProt P08922);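 note: ROS1 tested as one member of a kinome-wide kinase panel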
[12] = molecular target: Homeodomain-interacting protein kinase 2 (Homo sapiens, UniProt Q9H2X6);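 note: measured within a kinome-wide kinase profiling panel, HIPK2 being one panel member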
Chain of Homeodomain-interacting protein kinase 2 (Q9H2X6 whole entry): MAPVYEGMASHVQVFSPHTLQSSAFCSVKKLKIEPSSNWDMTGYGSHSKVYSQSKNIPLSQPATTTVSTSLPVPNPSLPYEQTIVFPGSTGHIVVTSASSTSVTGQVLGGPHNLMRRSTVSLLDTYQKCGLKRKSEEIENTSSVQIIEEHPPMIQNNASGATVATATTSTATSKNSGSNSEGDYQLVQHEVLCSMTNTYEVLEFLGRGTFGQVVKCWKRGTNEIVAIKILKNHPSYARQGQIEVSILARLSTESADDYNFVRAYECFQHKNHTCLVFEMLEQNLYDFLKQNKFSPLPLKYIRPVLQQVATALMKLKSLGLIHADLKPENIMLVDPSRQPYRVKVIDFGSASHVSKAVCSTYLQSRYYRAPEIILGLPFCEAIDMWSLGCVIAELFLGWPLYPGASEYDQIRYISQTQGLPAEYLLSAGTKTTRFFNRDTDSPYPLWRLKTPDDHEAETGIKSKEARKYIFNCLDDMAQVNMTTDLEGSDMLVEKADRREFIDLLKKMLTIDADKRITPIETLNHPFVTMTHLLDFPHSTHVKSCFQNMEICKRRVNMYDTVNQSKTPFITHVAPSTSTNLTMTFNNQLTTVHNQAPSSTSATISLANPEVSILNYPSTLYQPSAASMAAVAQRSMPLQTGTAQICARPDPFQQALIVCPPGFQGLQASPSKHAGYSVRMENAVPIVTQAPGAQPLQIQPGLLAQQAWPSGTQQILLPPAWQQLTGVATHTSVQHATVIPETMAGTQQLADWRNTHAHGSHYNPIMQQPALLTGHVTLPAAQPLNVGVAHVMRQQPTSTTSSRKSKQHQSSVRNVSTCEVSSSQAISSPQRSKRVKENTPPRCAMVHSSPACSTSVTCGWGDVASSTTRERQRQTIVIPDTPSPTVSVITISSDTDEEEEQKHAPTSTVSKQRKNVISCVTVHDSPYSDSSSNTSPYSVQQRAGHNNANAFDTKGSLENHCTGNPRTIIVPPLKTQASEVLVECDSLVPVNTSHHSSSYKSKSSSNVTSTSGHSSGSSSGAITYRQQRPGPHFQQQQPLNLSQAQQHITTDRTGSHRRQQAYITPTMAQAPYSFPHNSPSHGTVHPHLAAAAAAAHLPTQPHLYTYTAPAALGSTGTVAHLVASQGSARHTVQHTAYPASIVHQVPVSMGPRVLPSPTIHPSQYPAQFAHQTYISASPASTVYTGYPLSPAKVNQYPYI

[13] = molecular target: Protein-tyrosine kinase 2-beta (Homo sapiens, UniProt Q14289)
Chain of Protein-tyrosine kinase 2-beta (Q14289 whole entry): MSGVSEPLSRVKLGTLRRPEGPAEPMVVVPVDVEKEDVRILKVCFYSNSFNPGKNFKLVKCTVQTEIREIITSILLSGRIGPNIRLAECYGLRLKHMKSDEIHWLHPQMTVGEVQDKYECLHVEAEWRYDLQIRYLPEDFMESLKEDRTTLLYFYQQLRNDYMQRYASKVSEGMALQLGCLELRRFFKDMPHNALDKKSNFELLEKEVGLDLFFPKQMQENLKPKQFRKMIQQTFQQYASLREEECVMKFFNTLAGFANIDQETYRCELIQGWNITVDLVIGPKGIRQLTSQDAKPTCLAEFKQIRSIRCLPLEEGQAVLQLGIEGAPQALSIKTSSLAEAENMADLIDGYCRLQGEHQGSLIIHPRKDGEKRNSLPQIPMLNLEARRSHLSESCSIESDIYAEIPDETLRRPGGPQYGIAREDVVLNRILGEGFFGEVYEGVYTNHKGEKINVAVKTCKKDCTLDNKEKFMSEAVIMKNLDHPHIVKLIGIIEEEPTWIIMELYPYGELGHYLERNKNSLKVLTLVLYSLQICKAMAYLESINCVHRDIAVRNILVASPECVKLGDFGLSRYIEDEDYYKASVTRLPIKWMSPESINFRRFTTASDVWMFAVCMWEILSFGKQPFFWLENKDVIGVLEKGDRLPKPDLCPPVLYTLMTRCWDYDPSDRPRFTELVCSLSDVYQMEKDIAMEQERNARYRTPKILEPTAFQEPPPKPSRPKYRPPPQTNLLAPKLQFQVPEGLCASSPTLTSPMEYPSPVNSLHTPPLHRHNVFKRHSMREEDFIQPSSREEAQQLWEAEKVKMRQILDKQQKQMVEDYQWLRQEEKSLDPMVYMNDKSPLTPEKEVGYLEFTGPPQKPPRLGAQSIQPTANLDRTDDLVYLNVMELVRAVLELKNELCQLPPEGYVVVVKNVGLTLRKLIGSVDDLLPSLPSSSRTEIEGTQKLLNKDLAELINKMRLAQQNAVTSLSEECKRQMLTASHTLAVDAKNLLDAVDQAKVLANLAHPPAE

[14] = molecular target: Tyrosine-protein kinase ABL1 (Homo sapiens, UniProt P00519)
[15] = molecular target: Protein kinase C iota type (Homo sapiens, UniProt P41743);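 note: measured within a kinome-wide kinase panel, PRKCI as panel member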
[16] = molecular target: Protein-tyrosine kinase 6 (Homo sapiens, UniProt Q13882)
[17] = molecular target: Fibroblast growth factor receptor 3 (Homo sapiens, UniProt P22607)
[18] = molecular target: Receptor tyrosine-protein kinase erbB-4 (Homo sapiens, UniProt Q15303);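 note: ERBB4 member of a kinome-wide kinase profiling panel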
Chain of Receptor tyrosine-protein kinase erbB-4 (Q15303 whole entry): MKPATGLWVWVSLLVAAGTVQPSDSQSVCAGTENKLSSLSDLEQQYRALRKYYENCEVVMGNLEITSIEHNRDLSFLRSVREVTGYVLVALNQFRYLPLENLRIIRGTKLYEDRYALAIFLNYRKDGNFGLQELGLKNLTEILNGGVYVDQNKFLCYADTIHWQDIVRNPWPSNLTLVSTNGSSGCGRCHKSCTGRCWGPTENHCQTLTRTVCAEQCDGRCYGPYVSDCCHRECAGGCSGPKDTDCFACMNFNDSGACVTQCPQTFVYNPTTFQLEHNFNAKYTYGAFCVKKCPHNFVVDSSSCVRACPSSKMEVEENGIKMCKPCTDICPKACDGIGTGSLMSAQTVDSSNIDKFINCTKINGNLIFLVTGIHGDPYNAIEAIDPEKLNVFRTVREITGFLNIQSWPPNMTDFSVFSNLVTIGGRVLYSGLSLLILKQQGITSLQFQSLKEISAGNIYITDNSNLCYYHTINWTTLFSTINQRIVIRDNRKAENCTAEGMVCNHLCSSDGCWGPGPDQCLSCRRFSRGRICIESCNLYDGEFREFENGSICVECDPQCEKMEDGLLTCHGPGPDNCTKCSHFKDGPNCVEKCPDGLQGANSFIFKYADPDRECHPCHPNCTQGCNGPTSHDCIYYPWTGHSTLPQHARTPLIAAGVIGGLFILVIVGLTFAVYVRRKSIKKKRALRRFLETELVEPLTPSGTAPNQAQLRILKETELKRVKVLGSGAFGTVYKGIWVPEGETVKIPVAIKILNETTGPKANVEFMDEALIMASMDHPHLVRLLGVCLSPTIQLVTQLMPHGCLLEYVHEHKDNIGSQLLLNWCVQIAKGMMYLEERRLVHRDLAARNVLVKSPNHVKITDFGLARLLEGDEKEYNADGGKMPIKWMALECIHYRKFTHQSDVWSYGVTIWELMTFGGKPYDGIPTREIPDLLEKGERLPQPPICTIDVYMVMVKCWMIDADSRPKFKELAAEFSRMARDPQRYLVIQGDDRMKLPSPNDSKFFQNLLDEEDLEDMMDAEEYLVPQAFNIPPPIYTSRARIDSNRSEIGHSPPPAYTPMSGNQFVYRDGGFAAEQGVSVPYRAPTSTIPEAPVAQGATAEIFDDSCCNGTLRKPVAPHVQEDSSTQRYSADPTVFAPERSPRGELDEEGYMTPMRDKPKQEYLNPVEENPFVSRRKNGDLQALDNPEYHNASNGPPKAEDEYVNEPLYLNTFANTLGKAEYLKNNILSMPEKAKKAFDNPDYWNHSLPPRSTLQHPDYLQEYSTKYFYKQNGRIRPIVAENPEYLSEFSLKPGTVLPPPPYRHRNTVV

[19] = molecular target: Mitogen-activated protein kinase 12 (Homo sapiens, UniProt P53778);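 note: measured as one member of a kinome-wide kinase profiling panel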
[20] = Vero cell cytotoxicity, dose response, cytotoxicity control for M. tuberculosis growth inhibitor project, Vero cells, purified and synthesized compounds, set 5 (AID 504909); conditions: Mycobacterium tuberculosis
[21] = A Cell Based Secondary Assay to Explore Cytotoxicity in THP-1 Cells of Compounds that Modulate Mycobacterium tuberculosis in Media Containing Glycerol versus Media without Glycerol (2).
[22] = Vero cell cytotoxicity, cytotoxicity control for M. tuberculosis inhibitor project, purified and synthesized samples, set 3 (AID 504684)
[23] = THP-1 cell cytotoxicity, cytotoxicity control, set 4 (AID 504911); conditions: Mycobacterium tuberculosis
[24] = A Cell Based Secondary Assay to Explore Cytotoxicity in HepG2 Cells of Compounds that Modulate Mycobacterium tuberculosis in Media Containing Glycerol versus Media without Glycerol (2).
[25] = HepG2 cell cytotoxicity, dose response, cytotoxicity control, set 3 (AID 504853); conditions: Mycobacterium tuberculosis
[26] = THP-1 cell cytotoxicity, dose response, cytotoxicity control, set 3 (AID 504852); conditions: Mycobacterium tuberculosis
[27] = Vero cell cytotoxicity, dose response, cytotoxicity control for M. tuberculosis growth inhibitor project, Vero cells, purified and synthesized compounds, set 4 (AID 504854); conditions: Mycobacterium tuberculosis

Nc1nc(NCC2CCCO2)nc(Nc2ccc(F)cc2)c1[N+](=O)[O-] (configuration not stated)
active: AC50 [1] 0.802 µM | AC50 [2] 2.42 µM

CCC1C(=O)N(C)c2cnc(Nc3ccc(C(=O)NC4CCN(C)CC4)cc3OC)nc2N1C1CCCC1 (configuration not stated)
inactive: Ki [3] > 2 µM | Ki [4] > 6.31 µM | Ki [5] > 6.31 µM | Ki [8] > 3.16 µM | Ki [9] > 10 µM | Ki [10] > 6.31 µM | Ki [11] > 2 µM | Ki [12] > 3.16 µM | Ki [14] > 0.631 µM | Ki [15] > 5.01 µM | Ki [16] > 2.51 µM | Ki [17] > 2 µM | Ki [18] > 3.98 µM | Ki [19] > 6.31 µM
active: Ki [6] 0.2 µM | Ki [7] 1.58 µM | Ki [13] 0.631 µM

Cc1cc(C)n2nc(N)c(/N=N/c3ccccc3)c2n1
active: CC50 [20] > 100 µM | CC50 [21] > 100 µM | CC50 [22] 83.7 µM | CC50 [23] > 99.5 µM | CC50 [24] > 50 µM | CC50 [25] > 50 µM | CC50 [26] > 100 µM | CC50 [27] 93 µM
